Laboratory results reported in PMC5911928 (European journal of medicinal chemistry, 2017).
Converted amounts (≈) assume the structure as drawn. Values belong to the compound of their own block, whether it stands above or below them.

Assays:
[1] = Human microsomal stability analysis; assay type: in vitro ADME; conditions: human liver microsomes
[2] = test system: UDP-N-acetylmuramyl pentapeptide in S. aureus NRS107 (RN4220); assay: Detection of final soluble cell wall precursor by HPLC/MS; assay type: cell-based, Staphylococcus aureus; conditions: 10 × MIC, 30 minutes
[3] = test system: B. subtilis; assay: Bacterial Cytological Profiling; assay type: cell-based, Bacillus subtilis; conditions: for cell shape (BCP) in media containing MSM: LB-MSM, two hours, 4i 4 × MIC, oxacillin 5×MIC, D-cycloserine 1×MIC
[4] = test system: J774 cells; assay: MTS cytotoxicity analysis against murine macrophages; assay type: cell-based; conditions: MTS assay, tested at 8, 16, 32, 64 μg/mL
[5] = test system: drug-resistant S. aureus clinical isolates; assay: Anti-MRSA activity over the panel of S. aureus clinical isolates; assay type: cell-based, Staphylococcus aureus; conditions: against both MRSA and VRSA
[6] = test system: MRSA USA300; assay: In vivo antibacterial activity in MRSA-infected C. elegans; design: species or system Caenorhabditis elegans; conditions: for reduction of the burden of MRSA USA300: C. elegans AU37, 20 μg/mL, 18 hours treatment
[7] = test system: MRSA USA400; assay: Time-kill assay; conditions: 4 × MIC, MRSA USA400, 37 °C, 24-hour incubation
[8] = test system: HaCaT cells; assay: MTS cytotoxicity analysis against human keratinocytes; assay type: cell-based; conditions: MTS assay, tested at 8, 16, 32, 64 μg/mL
[9] = test system: MRSA USA400 inside infected murine macrophage (J774) cells; assay: Eradication of intracellular MRSA in infected macrophages; conditions: 16 μg/mL, J774 cells infected with MRSA USA400
[10] = test system: S. aureus NRS107 (RN4220); assay: microbe, parasite or virus in culture; assay type: cell-based; conditions: Staphylococcus aureus
[11] = test system: VRSA4; assay: MIC/MBC broth microdilution; assay type: cell-based; conditions: Staphylococcus aureus
[12] = test system: VRSA10; assay: MIC/MBC broth microdilution; assay type: cell-based; conditions: Staphylococcus aureus
[13] = test system: B. subtilis; assay: MIC against B. subtilis; assay type: cell-based; conditions: Bacillus subtilis
[14] = pH 7.4, NADPH-Free CLint, without NADPH

microsomal CLint [1, 14]: < 9.6 µL/min/mg
SMILES: CCCCc1ccc(-c2nc(C)c(/C(C)=N/NC(=N)N)s2)cc1 [Compound 1a, reference compound]

SMILES: Cc1nc(-c2ccc3ccccc3c2)sc1-c1cnc(NC(=N)N)s1 [Compound 4i, 1-(4′-Methyl-2′-(naphthalen-2-yl)-[5,5′-bithiazol]-2-yl)guanidine]
peak of UDP-N-acetylmuramyl pentapeptide (accumulation) [2]: noticeable increase
effect on cells (BCP) ([3]; 5 × MIC, two hours of exposure): lysed
cell shape (BCP) in media containing MSM [3]: misshapen and formed small bulges
concentration up to which non-toxic [4]: 16000 ng/mL
MBC values relative to MIC values [5]: matched or were two-fold higher
reduction of the burden of MRSA USA300 [6]: approximately 30%
reduction of MRSA burden relative to lead compound 1c and vancomycin ([6]; C. elegans, 20 μg/mL, 18 hours, same experimental conditions): three
time to completely eliminate MRSA cells [7]: four
microsomal CLint ([1]; pH 7.4, NADPH-Dependent CLint, with NADPH): 17.3 µL/min/mg
microsomal CLint [1, 14]: < 9.6 µL/min/mg
concentration up to which not toxic [8]: 32000 ng/mL
reduction of MRSA CFU/mL in infected macrophages ([9]; four hours of treatment): unable to reduce

SMILES: CC(=O)NC[C@H]1CN(c2ccc(N3CCOCC3)c(F)c2)C(=O)O1 [Linezolid]
MIC [10]: 2 µg/mL (≈ 5.93 µM)
MIC [11]: 2 µg/mL (≈ 5.93 µM)
MIC [12]: 2 µg/mL (≈ 5.93 µM)

SMILES: CN[C@H](CC(C)C)C(=O)N[C@H]1C(=O)N[C@@H](CC(N)=O)C(=O)N[C@H]2C(=O)N[C@H]3C(=O)N[C@H](C(=O)N[C@H](C(=O)O)c4cc(O)cc(O)c4-c4cc3ccc4O)[C@H](O)c3ccc(c(Cl)c3)Oc3cc2cc(c3O[C@@H]2O[C@H](CO)[C@@H](O)[C@H](O)[C@H]2O[C@H]2C[C@](C)(N)[C@H](O)[C@H](C)O2)Oc2ccc(cc2Cl)[C@H]1O [Vancomycin, reference compound]
peak of UDP-N-acetylmuramyl pentapeptide (accumulation) [2]: noticeable increase
reduction of the burden of MRSA USA300 [6]: low reduction
reduction of MRSA CFU in infected macrophages ([9]; 24 hours of treatment): not able to reduce

MIC [13]: 0.47 µg/mL (≈ 1.08 µM)
SMILES: Cc1onc(-c2ccccc2Cl)c1C(=O)N[C@@H]1C(=O)N2[C@@H]1SC(C)(C)[C@@H]2C(=O)O [cloxacillin]

SMILES: Cc1onc(-c2ccccc2)c1C(=O)N[C@@H]1C(=O)N2[C@@H]1SC(C)(C)[C@@H]2C(=O)O [oxacillin, reference compound]
cell shape (BCP) in media containing MSM [3]: large bulges and misshapen cells

MIC [13]: 37.5 µg/mL (≈ 367 µM)
SMILES: N[C@@H]1CONC1=O [ᴅ-cycloserine]
